In ChEMBL document CHEMBL1201862, “PubChem BioAssay data set” (2004):
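Cultured in 96-well plates, cells were exposed to test compound for 48 hours across five concentrations. At the GI50, growth is halved.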 The source made the active and inactive calls. No stated cut-off is given here; in the data, active = GI50 up to about 1.1 µM and inactive = higher.

How the values were obtained:
Test in all cases: NCI anticancer screen, dose series, 48 h
[1] = system: 786-0
[2] = system: OVCAR-3
[3] = system: TK-10
[4] = system: NCI-H460
[5] = system: LOX IMVI
[6] = system: IGROV-1
[7] = system: K562
[8] = system: HOP-62
[9] = system: SK-MEL-5
[10] = system: SN12C
[11] = system: MOLT-4
[12] = system: KM-20L2
[13] = system: A549
[14] = system: SF-539
[15] = system: M19-MEL
[16] = system: RPMI-8226
[17] = system: A498
[18] = system: HCC 2998
[19] = system: KM12
[20] = system: DMS-273
[21] = system: Malme-3M
[22] = system: LXFL 529
[23] = system: OVCAR-4
[24] = system: M14
[25] = system: SW-620
[26] = system: DMS-114
[27] = system: HT-29
[28] = system: HCT-15
[29] = system: EKVX
[30] = system: RXF 393
[31] = system: U-251
[32] = system: CAKI-1
[33] = system: SR
[34] = system: SK-MEL-2
[35] = system: NCI-H522
[36] = system: HCT-116
[37] = system: COLO 205
[38] = system: HL-60
[39] = system: UACC-62
[40] = system: SNB-75
[41] = system: NCI-H23
[42] = system: UACC-257
[43] = system: SNB-19
[44] = system: CCRF-CEM
[45] = system: SF-295
[46] = system: DLD-1
[47] = system: ACHN
[48] = system: OVCAR-8
[49] = system: RXF 631
[50] = system: UO-31
[51] = system: XF498
[52] = system: SNB-78
[53] = system: NCI-H226
[54] = system: OVCAR-5
[55] = system: SK-OV-3
[56] = system: SK-MEL-28
[57] = system: SF-268
[58] = system: HOP-92

CN(C)C(=O)CC(C(=O)O)c1c[nH]c2ccccc12 (stereo not drawn)
GI50 [1]: > 100 µM (inactive) | GI50 [2]: > 100 µM (inactive) | GI50 [3]: > 100 µM (inactive) | GI50 [4]: > 100 µM (inactive) | GI50 [5]: > 100 µM (inactive) | GI50 [6]: > 100 µM (inactive) | GI50 [7]: > 100 µM (inactive) | GI50 [8]: > 100 µM (inactive) | GI50 [9]: > 100 µM (inactive) | GI50 [10]: > 100 µM (inactive) | GI50 [11]: > 100 µM (inactive) | GI50 [12]: > 100 µM (inactive) | GI50 [13]: > 100 µM (inactive) | GI50 [14]: > 100 µM (inactive) | GI50 [15]: > 100 µM (inactive) | GI50 [16]: > 100 µM (inactive) | GI50 [17]: > 100 µM (inactive) | GI50 [18]: > 100 µM (inactive) | GI50 [19]: > 100 µM (inactive) | GI50 [20]: > 100 µM (inactive) | GI50 [21]: > 100 µM (inactive) | GI50 [22]: > 100 µM (inactive) | GI50 [23]: > 100 µM (inactive) | GI50 [24]: > 100 µM (inactive) | GI50 [25]: > 100 µM (inactive) | GI50 [26]: > 100 µM (inactive) | GI50 [27]: > 100 µM (inactive) | GI50 [28]: > 100 µM | GI50 [29]: > 100 µM (inactive) | GI50 [30]: 10.2 µM (inactive) | GI50 [31]: > 100 µM (inactive) | GI50 [32]: > 100 µM (inactive) | GI50 [33]: > 100 µM (inactive) | GI50 [34]: > 100 µM (inactive) | GI50 [35]: > 100 µM (inactive) | GI50 [36]: > 100 µM (inactive) | GI50 [37]: > 100 µM (inactive) | GI50 [38]: > 100 µM (inactive) | GI50 [39]: > 100 µM (inactive) | GI50 [40]: > 100 µM (inactive) | GI50 [41]: > 100 µM (inactive) | GI50 [42]: > 100 µM (inactive) | GI50 [43]: > 100 µM (inactive) | GI50 [44]: > 100 µM (inactive) | GI50 [45]: > 100 µM (inactive) | GI50 [46]: > 100 µM (inactive) | GI50 [47]: > 100 µM (inactive) | GI50 [48]: > 100 µM (inactive) | GI50 [49]: > 100 µM (inactive) | GI50 [50]: 0.0895 µM (active)

C=C(COC(C)=O)CC(/C=C(\C)CC/C=C(\C)CO)OC(C)=O (stereo not drawn)
GI50 [1]: > 100 µM (inactive) | GI50 [2]: > 100 µM (inactive) | GI50 [3]: > 100 µM (inactive) | GI50 [4]: > 100 µM (inactive) | GI50 [5]: > 100 µM (inactive) | GI50 [6]: > 100 µM (inactive) | GI50 [51]: > 100 µM (inactive) | GI50 [7]: > 100 µM (inactive) | GI50 [8]: > 100 µM (inactive) | GI50 [52]: > 100 µM (inactive) | GI50 [9]: > 100 µM (inactive) | GI50 [10]: > 100 µM (inactive) | GI50 [11]: 35.1 µM (inactive) | GI50 [53]: > 100 µM (inactive) | GI50 [12]: > 100 µM (inactive) | GI50 [13]: > 100 µM (inactive) | GI50 [14]: > 100 µM (inactive) | GI50 [15]: > 100 µM (inactive) | GI50 [16]: > 10 µM (inactive) | GI50 [54]: > 100 µM (inactive) | GI50 [17]: > 100 µM (inactive) | GI50 [18]: > 100 µM (inactive) | GI50 [55]: > 100 µM (inactive) | GI50 [19]: > 100 µM (inactive) | GI50 [20]: > 100 µM (inactive) | GI50 [22]: > 100 µM (inactive) | GI50 [23]: > 100 µM (inactive) | GI50 [24]: > 100 µM (inactive) | GI50 [25]: > 100 µM (inactive) | GI50 [27]: > 100 µM (inactive) | GI50 [28]: > 100 µM | GI50 [56]: > 100 µM (inactive) | GI50 [57]: > 100 µM (inactive) | GI50 [29]: > 100 µM (inactive) | GI50 [30]: > 100 µM (inactive) | GI50 [31]: > 100 µM (inactive) | GI50 [34]: > 100 µM (inactive) | GI50 [35]: > 100 µM (inactive) | GI50 [36]: > 100 µM (inactive) | GI50 [37]: > 100 µM (inactive) | GI50 [58]: 54.8 µM (inactive) | GI50 [38]: > 100 µM (inactive) | GI50 [39]: > 100 µM (inactive) | GI50 [40]: 59 µM (inactive) | GI50 [41]: > 100 µM (inactive) | GI50 [43]: > 100 µM (inactive) | GI50 [44]: > 100 µM (inactive) | GI50 [45]: > 100 µM (inactive) | GI50 [46]: > 100 µM (inactive) | GI50 [47]: > 100 µM (inactive) | GI50 [48]: > 100 µM (inactive) | GI50 [49]: > 100 µM (inactive) | GI50 [50]: > 100 µM (inactive)
